Experiments:
[1] = target: Serine/threonine-protein kinase 33 (Homo sapiens) (UniProt Q9BYT3); conditions: Compound concentration 1000.0 nM
[2] = system: Tyrosine-protein kinase ABL1 (Homo sapiens), P00519 [E255K]; conditions: Compound concentration 1000.0 nM
[3] = target: Serine/threonine-protein kinase DCLK2 (Homo sapiens) (UniProt Q8N568); conditions: Compound concentration 1000.0 nM
[4] = target: Atypical kinase COQ8A, mitochondrial (Homo sapiens) (UniProt Q8NI60); conditions: Compound concentration 1000.0 nM
[5] = target: cGMP-dependent protein kinase 2 (Homo sapiens) (UniProt Q13237); conditions: Compound concentration 1000.0 nM
[6] = target: TGF-beta receptor type-1 (Homo sapiens) (UniProt P36897); conditions: Compound concentration 1000.0 nM
TGF-beta receptor type-1 (Homo sapiens), sequence (P36897 whole entry): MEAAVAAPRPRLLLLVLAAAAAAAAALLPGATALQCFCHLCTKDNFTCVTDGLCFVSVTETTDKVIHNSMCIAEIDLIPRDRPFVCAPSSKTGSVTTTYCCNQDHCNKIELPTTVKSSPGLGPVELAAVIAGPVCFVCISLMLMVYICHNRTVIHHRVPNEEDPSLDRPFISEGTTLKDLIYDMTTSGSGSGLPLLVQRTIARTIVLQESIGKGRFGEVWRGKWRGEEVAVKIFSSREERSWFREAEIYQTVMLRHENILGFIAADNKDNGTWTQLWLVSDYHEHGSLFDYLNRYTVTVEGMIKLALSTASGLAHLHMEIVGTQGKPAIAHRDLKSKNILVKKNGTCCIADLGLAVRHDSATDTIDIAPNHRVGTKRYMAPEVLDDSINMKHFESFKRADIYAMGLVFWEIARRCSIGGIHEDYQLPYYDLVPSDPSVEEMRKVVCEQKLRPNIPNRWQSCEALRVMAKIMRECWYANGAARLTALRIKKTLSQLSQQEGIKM

[7] = target: Protein kinase C delta type (Homo sapiens) (UniProt Q05655); conditions: Compound concentration 1000.0 nM
[8] = target: Mitogen-activated protein kinase kinase kinase kinase 4 (Homo sapiens) (UniProt O95819); conditions: Compound concentration 1000.0 nM
[9] = target: TGF-beta receptor type-2 (Homo sapiens) (UniProt P37173); conditions: Compound concentration 1000.0 nM
[10] = target: Serine/threonine-protein kinase RIO2 (Homo sapiens) (UniProt Q9BVS4); conditions: Compound concentration 1000.0 nM
[11] = system: Tyrosine-protein kinase ABL1 (Homo sapiens), P00519 [T315I]; conditions: Compound concentration 1000.0 nM
[12] = system: Leucine-rich repeat serine/threonine-protein kinase 2 (Homo sapiens), Q5S007 [G2019S]; conditions: Compound concentration 1000.0 nM
[13] = target: NUAK family SNF1-like kinase 1 (Homo sapiens) (UniProt O60285); conditions: Compound concentration 1000.0 nM
[14] = system: Epidermal growth factor receptor (Homo sapiens), P00533 [UNDEFINED MUTATION]; conditions: Compound concentration 1000.0 nM
[15] = target: Testis-specific serine/threonine-protein kinase 1 (Homo sapiens) (UniProt Q9BXA7); conditions: Compound concentration 1000.0 nM
[16] = target: Ephrin type-A receptor 7 (Homo sapiens) (UniProt Q15375); conditions: Compound concentration 1000.0 nM
Ephrin type-A receptor 7 (Homo sapiens), sequence (Q15375 28-998 limits assumed): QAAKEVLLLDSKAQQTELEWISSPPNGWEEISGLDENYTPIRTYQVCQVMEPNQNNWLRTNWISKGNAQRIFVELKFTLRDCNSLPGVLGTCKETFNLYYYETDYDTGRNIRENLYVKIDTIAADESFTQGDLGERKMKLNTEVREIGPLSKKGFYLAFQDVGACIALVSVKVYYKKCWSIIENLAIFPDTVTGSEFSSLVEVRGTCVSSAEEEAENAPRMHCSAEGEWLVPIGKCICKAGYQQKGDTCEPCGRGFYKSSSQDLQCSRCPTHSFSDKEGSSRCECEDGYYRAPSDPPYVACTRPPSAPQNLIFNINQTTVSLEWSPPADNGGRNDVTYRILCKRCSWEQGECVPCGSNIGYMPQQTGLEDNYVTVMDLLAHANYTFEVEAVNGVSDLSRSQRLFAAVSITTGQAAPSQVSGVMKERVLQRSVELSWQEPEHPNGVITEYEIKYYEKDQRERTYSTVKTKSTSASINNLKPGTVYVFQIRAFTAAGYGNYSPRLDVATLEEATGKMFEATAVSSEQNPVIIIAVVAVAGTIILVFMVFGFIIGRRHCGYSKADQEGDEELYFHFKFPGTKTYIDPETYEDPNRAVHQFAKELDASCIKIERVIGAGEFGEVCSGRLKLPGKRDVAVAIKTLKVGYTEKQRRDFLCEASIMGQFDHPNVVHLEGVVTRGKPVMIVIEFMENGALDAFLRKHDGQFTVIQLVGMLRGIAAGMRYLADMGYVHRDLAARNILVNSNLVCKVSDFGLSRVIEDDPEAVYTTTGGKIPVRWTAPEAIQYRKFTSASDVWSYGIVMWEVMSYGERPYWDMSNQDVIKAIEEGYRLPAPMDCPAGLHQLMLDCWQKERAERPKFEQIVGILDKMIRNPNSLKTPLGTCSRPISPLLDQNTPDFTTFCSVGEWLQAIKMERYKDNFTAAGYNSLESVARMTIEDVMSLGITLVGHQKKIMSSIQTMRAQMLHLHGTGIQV

[17] = target: Prostaglandin G/H synthase 2 (Homo sapiens) (UniProt P35354); assay: Cyclooxygenase 2 (human) CEREP ligand profiling; conditions: Compound concentration 10.0 uM
[18] = system: Receptor-type tyrosine-protein kinase FLT3 (Homo sapiens), P36888 [UNDEFINED MUTATION]; conditions: Compound concentration 1000.0 nM
[19] = target: 5-hydroxytryptamine receptor 2B (Homo sapiens) (UniProt P41595); assay: Serotonin 5-HT2b (human) CEREP ligand profiling; conditions: Compound concentration 10.0 uM
[20] = target: NUAK family SNF1-like kinase 2 (Homo sapiens) (UniProt Q9H093); conditions: Compound concentration 1000.0 nM
[21] = target: Cyclin-dependent kinase 15 (Homo sapiens) (UniProt Q96Q40); conditions: Compound concentration 1000.0 nM
[22] = target: Serine/threonine-protein kinase 16 (Homo sapiens) (UniProt O75716); conditions: Compound concentration 1000.0 nM
Serine/threonine-protein kinase 16 (Homo sapiens), sequence (O75716 whole entry): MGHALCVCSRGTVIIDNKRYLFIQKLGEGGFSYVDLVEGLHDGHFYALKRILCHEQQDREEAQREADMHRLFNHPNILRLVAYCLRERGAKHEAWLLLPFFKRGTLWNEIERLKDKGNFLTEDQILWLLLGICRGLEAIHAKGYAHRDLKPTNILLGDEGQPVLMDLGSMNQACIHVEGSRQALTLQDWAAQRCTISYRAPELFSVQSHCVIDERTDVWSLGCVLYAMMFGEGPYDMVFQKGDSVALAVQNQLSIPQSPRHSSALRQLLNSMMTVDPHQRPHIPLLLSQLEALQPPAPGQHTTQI

[23] = target: Serine/threonine-protein kinase SIK1 (Homo sapiens) (UniProt P57059); conditions: Compound concentration 1000.0 nM
[24] = target: Cyclin-dependent kinase 17 (Homo sapiens) (UniProt Q00537); conditions: Compound concentration 1000.0 nM
[25] = target: Serine/threonine-protein kinase N2 (Homo sapiens) (UniProt Q16513); conditions: Compound concentration 1000.0 nM
[26] = target: D(1A) dopamine receptor (Homo sapiens) (UniProt P21728); conditions: Compound concentration 10.0 uM
D(1A) dopamine receptor (Homo sapiens), sequence (P21728 whole entry): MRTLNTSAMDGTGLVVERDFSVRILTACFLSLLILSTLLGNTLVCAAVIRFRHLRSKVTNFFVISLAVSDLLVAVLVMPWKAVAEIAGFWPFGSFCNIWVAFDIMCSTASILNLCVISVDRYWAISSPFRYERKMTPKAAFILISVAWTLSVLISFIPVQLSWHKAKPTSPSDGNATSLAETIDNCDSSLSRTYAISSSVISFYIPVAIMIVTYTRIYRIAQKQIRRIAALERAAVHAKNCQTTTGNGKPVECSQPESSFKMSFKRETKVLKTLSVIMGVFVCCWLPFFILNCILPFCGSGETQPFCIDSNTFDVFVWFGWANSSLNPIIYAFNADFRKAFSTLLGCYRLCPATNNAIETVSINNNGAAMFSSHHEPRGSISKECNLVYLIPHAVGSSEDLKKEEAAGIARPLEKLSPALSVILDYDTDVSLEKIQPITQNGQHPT

[27] = target: Protein-tyrosine kinase 6 (Homo sapiens) (UniProt Q13882); conditions: Compound concentration 1000.0 nM
Protein-tyrosine kinase 6 (Homo sapiens), sequence (Q13882 whole entry, looked up): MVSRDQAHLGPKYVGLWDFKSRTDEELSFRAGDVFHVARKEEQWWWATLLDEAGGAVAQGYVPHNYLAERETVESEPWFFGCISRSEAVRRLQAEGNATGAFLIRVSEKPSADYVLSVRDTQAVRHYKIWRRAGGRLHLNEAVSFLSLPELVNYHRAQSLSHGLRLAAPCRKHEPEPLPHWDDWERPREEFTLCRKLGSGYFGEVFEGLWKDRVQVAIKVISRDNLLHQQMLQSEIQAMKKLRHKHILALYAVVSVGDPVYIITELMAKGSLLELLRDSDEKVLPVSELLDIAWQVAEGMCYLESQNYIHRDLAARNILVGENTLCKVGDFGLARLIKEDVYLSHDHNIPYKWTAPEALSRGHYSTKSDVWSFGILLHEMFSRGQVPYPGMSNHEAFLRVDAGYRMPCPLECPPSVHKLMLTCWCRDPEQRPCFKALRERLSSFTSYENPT

[28] = target: Serine/threonine-protein kinase SBK1 (Homo sapiens) (UniProt Q52WX2); conditions: Compound concentration 1000.0 nM
[29] = target: Mast/stem cell growth factor receptor Kit (Homo sapiens) (UniProt P10721); conditions: Compound concentration 1000.0 nM
Mast/stem cell growth factor receptor Kit (Homo sapiens), sequence (P10721 whole entry): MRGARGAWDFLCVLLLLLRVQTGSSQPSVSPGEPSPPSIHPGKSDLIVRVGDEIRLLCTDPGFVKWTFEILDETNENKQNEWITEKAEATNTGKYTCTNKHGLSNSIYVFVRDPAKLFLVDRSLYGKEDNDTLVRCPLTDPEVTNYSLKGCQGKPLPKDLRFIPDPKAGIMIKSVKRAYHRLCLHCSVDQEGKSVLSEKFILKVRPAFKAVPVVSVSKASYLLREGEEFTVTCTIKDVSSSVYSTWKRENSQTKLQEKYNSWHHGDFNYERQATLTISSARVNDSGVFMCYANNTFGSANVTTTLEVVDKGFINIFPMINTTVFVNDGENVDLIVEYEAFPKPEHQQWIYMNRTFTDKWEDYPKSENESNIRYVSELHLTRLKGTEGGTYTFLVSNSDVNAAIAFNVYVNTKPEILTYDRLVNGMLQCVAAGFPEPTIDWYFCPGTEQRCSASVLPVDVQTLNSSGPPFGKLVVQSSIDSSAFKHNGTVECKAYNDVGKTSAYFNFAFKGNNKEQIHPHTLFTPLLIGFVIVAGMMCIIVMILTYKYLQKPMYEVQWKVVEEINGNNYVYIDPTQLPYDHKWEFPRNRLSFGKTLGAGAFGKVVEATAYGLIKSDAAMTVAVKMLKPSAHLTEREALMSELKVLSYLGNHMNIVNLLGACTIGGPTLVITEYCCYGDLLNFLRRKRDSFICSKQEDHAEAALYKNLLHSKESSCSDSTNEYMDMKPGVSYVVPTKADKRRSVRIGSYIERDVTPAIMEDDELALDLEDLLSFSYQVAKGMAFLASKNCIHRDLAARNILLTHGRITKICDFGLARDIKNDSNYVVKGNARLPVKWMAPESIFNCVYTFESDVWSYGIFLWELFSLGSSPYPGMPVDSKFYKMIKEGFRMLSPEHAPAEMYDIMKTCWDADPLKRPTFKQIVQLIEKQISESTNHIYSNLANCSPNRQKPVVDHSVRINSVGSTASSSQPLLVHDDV

[30] = target: Mitogen-activated protein kinase 12 (Homo sapiens) (UniProt P53778); conditions: Compound concentration 1000.0 nM
[31] = target: Ribosomal protein S6 kinase alpha-5 (Homo sapiens) (UniProt O75582); conditions: Compound concentration 1000.0 nM
[32] = target: Calcium/calmodulin-dependent protein kinase type II subunit alpha (Homo sapiens) (UniProt Q9UQM7); conditions: Compound concentration 1000.0 nM
Calcium/calmodulin-dependent protein kinase type II subunit alpha (Homo sapiens), sequence (Q9UQM7 whole entry): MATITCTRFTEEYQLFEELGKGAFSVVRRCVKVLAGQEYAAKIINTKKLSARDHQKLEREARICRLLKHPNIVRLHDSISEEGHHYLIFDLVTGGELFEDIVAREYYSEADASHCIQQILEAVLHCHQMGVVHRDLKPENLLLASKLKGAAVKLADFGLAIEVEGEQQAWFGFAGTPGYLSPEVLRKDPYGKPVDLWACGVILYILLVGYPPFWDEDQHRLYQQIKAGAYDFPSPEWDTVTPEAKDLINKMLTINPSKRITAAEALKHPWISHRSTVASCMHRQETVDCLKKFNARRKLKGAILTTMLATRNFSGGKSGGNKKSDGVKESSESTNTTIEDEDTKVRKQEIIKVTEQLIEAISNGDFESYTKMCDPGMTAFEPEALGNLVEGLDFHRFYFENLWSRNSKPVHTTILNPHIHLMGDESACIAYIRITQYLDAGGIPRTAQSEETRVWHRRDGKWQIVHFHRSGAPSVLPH

[33] = target: Serine/threonine-protein kinase TBK1 (Homo sapiens) (UniProt Q9UHD2); conditions: Compound concentration 1000.0 nM
[34] = target: Tyrosine-protein kinase Lck (Homo sapiens) (UniProt P06239); conditions: Compound concentration 1000.0 nM
[35] = target: Protein kinase C eta type (Homo sapiens) (UniProt P24723); conditions: Compound concentration 1000.0 nM
[36] = target: Phosphorylase b kinase regulatory subunit alpha, liver isoform (Homo sapiens) (UniProt P46019); conditions: Compound concentration 1000.0 nM
[37] = target: Serine/threonine-protein kinase ULK3 (Homo sapiens) (UniProt Q6PHR2); conditions: Compound concentration 1000.0 nM
[38] = target: Serine/threonine-protein kinase 32B (Homo sapiens) (UniProt Q9NY57); conditions: Compound concentration 1000.0 nM
[39] = target: Phosphatidylinositol 4-kinase beta (Homo sapiens) (UniProt Q9UBF8); conditions: Compound concentration 1000.0 nM
[40] = target: MAP kinase-interacting serine/threonine-protein kinase 1 (Homo sapiens) (UniProt Q9BUB5); conditions: Compound concentration 1000.0 nM
[41] = target: Misshapen-like kinase 1 (Homo sapiens) (UniProt Q8N4C8); conditions: Compound concentration 1000.0 nM
[42] = target: Receptor tyrosine-protein kinase erbB-4 (Homo sapiens) (UniProt Q15303); conditions: Compound concentration 1000.0 nM
[43] = target: Tyrosine-protein kinase Fyn (Homo sapiens) (UniProt P06241); conditions: Compound concentration 1000.0 nM
[44] = target: Tyrosine-protein kinase ABL2 (Homo sapiens) (UniProt P42684); conditions: Compound concentration 1000.0 nM
[45] = target: MAP/microtubule affinity-regulating kinase 3 (Homo sapiens) (UniProt P27448); conditions: Compound concentration 1000.0 nM
MAP/microtubule affinity-regulating kinase 3 (Homo sapiens), sequence (P27448 whole entry, looked up): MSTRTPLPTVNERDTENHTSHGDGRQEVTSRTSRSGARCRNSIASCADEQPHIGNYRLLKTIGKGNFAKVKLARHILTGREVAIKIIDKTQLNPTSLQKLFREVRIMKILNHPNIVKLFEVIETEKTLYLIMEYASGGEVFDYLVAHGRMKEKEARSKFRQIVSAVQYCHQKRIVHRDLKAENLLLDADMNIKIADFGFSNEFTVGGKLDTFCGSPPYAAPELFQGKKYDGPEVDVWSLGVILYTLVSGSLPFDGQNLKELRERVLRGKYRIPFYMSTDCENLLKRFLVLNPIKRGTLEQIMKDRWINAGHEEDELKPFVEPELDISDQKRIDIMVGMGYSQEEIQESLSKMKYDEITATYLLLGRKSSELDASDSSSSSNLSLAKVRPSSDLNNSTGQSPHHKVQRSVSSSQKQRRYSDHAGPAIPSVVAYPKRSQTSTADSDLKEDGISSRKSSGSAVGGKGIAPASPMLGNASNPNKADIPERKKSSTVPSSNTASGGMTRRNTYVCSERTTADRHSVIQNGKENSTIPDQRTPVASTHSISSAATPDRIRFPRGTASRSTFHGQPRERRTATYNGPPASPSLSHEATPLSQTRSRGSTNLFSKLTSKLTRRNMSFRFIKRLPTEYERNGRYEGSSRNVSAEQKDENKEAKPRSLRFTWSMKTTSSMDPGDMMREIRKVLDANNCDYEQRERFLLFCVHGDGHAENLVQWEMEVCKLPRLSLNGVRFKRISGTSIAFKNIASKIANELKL

C[C@H](c1ccc(F)cc1)N(Cc1cccc(C(=O)O)c1)C(=O)c1cnc2ccccc2c1 [PF-05105679]
inactive: residual activity [1] 100% | residual activity [2] 100% | residual activity [3] 100% | residual activity [4] 85% | residual activity [5] 100% | residual activity [6] 96% | residual activity [7] 100% | residual activity [8] 96% | residual activity [9] 100% | residual activity [10] 80% | residual activity [11] 85% | residual activity [12] 100% | residual activity [13] 100% | residual activity [14] 100% | residual activity [15] 91% | residual activity [16] 80% | inhibition [17] 21% | residual activity [18] 99% | inhibition [19] 26% | residual activity [20] 100% | residual activity [21] 100% | residual activity [22] 100% | residual activity [23] 90% | residual activity [24] 84% | residual activity [25] 86% | inhibition [26] -0.79% | residual activity [27] 83% | residual activity [28] 92% | residual activity [29] 100% | residual activity [30] 65% | residual activity [31] 98% | residual activity [32] 97% | residual activity [33] 91% | residual activity [34] 100% | residual activity [35] 75% | residual activity [36] 100% | residual activity [37] 82% | residual activity [38] 97% | residual activity [39] 98% | residual activity [40] 100% | residual activity [41] 100% | residual activity [42] 94% | residual activity [43] 63% | residual activity [44] 82% | residual activity [45] 100%

— ChEMBL document CHEMBL4507296 (2021)
